Reference: ChEMBL document CHEMBL5523747, “Discovery of a Series of Orally Bioavailable Androgen Receptor Degraders for the Treatment of Prostate Cancer” (J Med Chem, 2024)
Active and inactive are the calls of the source. The rule behind the calls is not given here.

Key:
[1] = Metabolic stability in human liver microsomes assessed as intrinsic clearance; assay type: ADME, Microsome; conditions: read-out: CLH
[2] = target: T1, Protein cereblon/Androgen receptor (Homo sapiens, UniProt P10275+Q96SW2); assay: PROTAC activity at AR/CRBN in human LNCaP cells assessed as maximal protein degradation measured after 24 hrs incubation by imaging IF assay relative to control; assay type: cell-based
Target sequence in this assay (P10275 whole entry, looked up): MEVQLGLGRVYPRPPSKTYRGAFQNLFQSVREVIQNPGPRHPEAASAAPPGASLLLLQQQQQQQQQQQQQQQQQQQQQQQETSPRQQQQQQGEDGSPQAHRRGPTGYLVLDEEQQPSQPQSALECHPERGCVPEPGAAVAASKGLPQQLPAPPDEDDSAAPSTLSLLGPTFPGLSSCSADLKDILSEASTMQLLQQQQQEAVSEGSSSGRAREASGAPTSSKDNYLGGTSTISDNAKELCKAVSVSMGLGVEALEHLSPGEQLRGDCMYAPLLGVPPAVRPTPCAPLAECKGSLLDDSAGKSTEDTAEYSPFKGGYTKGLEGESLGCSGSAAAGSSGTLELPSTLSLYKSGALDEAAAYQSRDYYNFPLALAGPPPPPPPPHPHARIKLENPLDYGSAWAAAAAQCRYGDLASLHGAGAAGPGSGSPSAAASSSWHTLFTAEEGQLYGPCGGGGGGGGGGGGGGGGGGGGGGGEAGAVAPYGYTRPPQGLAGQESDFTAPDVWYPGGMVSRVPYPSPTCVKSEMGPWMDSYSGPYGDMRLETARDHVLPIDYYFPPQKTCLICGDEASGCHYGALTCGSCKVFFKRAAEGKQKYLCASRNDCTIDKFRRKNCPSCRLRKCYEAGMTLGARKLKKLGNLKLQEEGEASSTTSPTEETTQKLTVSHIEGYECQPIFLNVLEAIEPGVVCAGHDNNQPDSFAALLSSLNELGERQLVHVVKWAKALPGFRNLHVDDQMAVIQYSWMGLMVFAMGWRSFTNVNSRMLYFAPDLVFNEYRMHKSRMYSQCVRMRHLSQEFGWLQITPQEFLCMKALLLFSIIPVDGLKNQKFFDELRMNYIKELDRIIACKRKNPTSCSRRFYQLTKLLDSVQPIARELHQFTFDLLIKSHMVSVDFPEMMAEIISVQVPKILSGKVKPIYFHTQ
Target sequence in this assay (Q96SW2 whole entry, looked up): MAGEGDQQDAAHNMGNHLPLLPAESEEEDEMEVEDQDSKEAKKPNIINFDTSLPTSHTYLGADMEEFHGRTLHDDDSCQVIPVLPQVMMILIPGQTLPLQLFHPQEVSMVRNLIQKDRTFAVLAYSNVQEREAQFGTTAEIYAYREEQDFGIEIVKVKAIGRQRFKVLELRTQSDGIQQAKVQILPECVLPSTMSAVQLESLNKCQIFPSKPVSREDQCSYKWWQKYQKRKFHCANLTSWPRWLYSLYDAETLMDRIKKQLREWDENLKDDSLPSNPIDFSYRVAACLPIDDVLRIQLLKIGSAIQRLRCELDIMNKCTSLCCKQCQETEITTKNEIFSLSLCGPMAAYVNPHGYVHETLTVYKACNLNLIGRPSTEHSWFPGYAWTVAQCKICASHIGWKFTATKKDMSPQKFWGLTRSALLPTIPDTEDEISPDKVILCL

[3] = target: T1, Protein cereblon/Androgen receptor; assay: PROTAC activity at AR/CRBN in human LNCaP cells assessed as protein degradation measured after 24 hrs incubation by imaging IF assay; assay type: cell-based
Target sequence in this assay (P10275 whole entry): as the sequence (P10275 whole entry, looked up) above
Target sequence in this assay (Q96SW2 whole entry): as the sequence (Q96SW2 whole entry, looked up) above

LNCaP C4-2 [4] = assay: In vivo degradation of AR in human LNCaP C4-2 cells xenografted in mouse model assessed as tumor growth inhibition at 50 mg/kg, po once daily measured after 28 days relative to control; assay type: functional, organism-based; conditions: time 28.0 day
[5] = target: T1, Protein cereblon/Androgen receptor; assay: PROTAC activity at AR/CRBN in human LNCaP cells assessed as protein degradation measured after 24 hrs incubation in presence of excess lenalidomide CRBN ligand by imaging IF assay; assay type: cell-based
Target sequence in this assay (P10275 whole entry, looked up): as the sequence (P10275 whole entry, looked up) above
Target sequence in this assay (Q96SW2 whole entry, looked up): as the sequence (Q96SW2 whole entry, looked up) above

[6] = system: Protein cereblon/Androgen receptor (Homo sapiens), P10275+Q96SW2 [L702H]; assay: PROTAC activity at CRBN/AR L702H mutant (unknown origin) expressed in human LNCaP cells assessed as maximal protein degradation measured after 24 hrs incubation by imaging IF assay relative to control; assay type: cell-based
[7] = Volume of distribution at steady state in Beagle dog at 1 mg/kg, po and 0.5 mg/kg, iv infusion over 0.25 hrs; assay type: ADME, organism-based, Canis lupus familiaris; conditions: in vivo
[8] = Half life in CD-1 mouse at 1 mg/kg, po and 0.5 mg/kg, iv bolus; assay type: ADME, organism-based; conditions: in vivo
[9] = Oral bioavailability in Han Wistar rat at 1 mg/kg; assay type: ADME, organism-based; conditions: in vivo
[10] = Volume of distribution at steady state in CD-1 mouse at 1 mg/kg, po and 0.5 mg/kg, iv bolus; assay type: ADME, organism-based; conditions: in vivo
[11] = Half life in Beagle dog at 1 mg/kg, po and 0.5 mg/kg, iv infusion over 0.25 hrs; assay type: ADME, organism-based, Canis lupus familiaris; conditions: in vivo
[12] = Oral bioavailability in Beagle dog at 1 mg/kg; assay type: ADME, organism-based, Canis lupus familiaris; conditions: in vivo
LNCaP C4-2 [13] = assay: In vivo degradation of AR in human LNCaP C4-2 cells xenografted in mouse model assessed as degradation at 30 mg/kg, po once daily measured after 10 days relative to control; assay type: functional; conditions: time 10 day
[14] = Half life in CD-1 mouse at 1 mg/kg, po and 0.5 mg/kg, iv; assay type: ADME, organism-based; conditions: in vivo
[15] = Volume of distribution at steady state in Han Wistar rat at 1 mg/kg, po and 0.5 mg/kg, iv bolus; assay type: ADME, organism-based; conditions: in vivo
[16] = target: Protein cereblon/Androgen receptor (Homo sapiens, UniProt P10275+Q96SW2, L702H); assay: PROTAC activity at CRBN/AR L702H mutant (unknown origin) expressed in human LNCaP cells assessed as protein degradation measured after 24 hrs incubation by imaging IF assay; assay type: cell-based
Sequence of Protein cereblon/Androgen receptor (Homo sapiens, UniProt P10275+Q96SW2, L702H) (P10275 whole entry L702H, stated change not applied): as the sequence (P10275 whole entry, looked up) above, with L702H counted along it
Sequence of Protein cereblon/Androgen receptor (Homo sapiens, UniProt P10275+Q96SW2, L702H) (Q96SW2 whole entry, stated change not applied): as the sequence (Q96SW2 whole entry, looked up) above

LNCaP [17] = assay: Effect on AR mRNA level in human LNCaP cells at 0.0001 to 10 uM measured after 24 hrs incubation by QRTPCR analysis; assay type: functional, cell-based; conditions: dose 0.0001-10 µM
[18] = Oral bioavailability in CD-1 mouse at 1 mg/kg; assay type: ADME, organism-based; conditions: in vivo
LNCaP [19] = assay: Anti-proliferative activity against human LNCaP cells assessed as number of live cells measured after 7 days by Sytox Green Nucleic Acid stain assay; assay type: functional; conditions: 168 h, time 7 day
[20] = target: T1, Protein cereblon/Androgen receptor; assay: PROTAC activity at AR/CRBN in adrogen-sensitive human VCaP cells assessed as protein degradation at 0.0001 to 10 uM measured after 24 hrs incubation by Western blot analysis; assay type: cell-based; conditions: dose 0.0001-10 µM
Target sequence in this assay (P10275 whole entry, looked up): as the sequence (P10275 whole entry, looked up) above
Target sequence in this assay (Q96SW2 whole entry, looked up): as the sequence (Q96SW2 whole entry, looked up) above

[21] = Total plasma concentration in mouse xenografted with human LNCaP C4-2 cells at 30 mg/kg, po once daily measured after 10 days; assay type: ADME, organism-based; conditions: time 10 day, read-out: Cp(T)
[22] = target: T1, Protein cereblon/Androgen receptor; assay: PROTAC activity at AR/CRBN in human LNCaP cells assessed as protein degradation measured after 24 hrs incubation in presence of excess enzalutamide AR binder by imaging IF assay; assay type: cell-based
Target sequence in this assay (P10275 whole entry, looked up): as the sequence (P10275 whole entry, looked up) above
Target sequence in this assay (Q96SW2 whole entry, looked up): as the sequence (Q96SW2 whole entry, looked up) above

[23] = Volume of distribution at steady state in CD-1 mouse at 1 mg/kg, po and 0.5 mg/kg, iv; assay type: ADME, organism-based; conditions: in vivo
[24] = target: T1, Protein cereblon/Androgen receptor; assay: PROTAC activity at AR/CRBN in androgen-independent human LNCaP C4-2 cells assessed as protein degradation at 0.0001 to 10 uM measured after 24 hrs incubation by Western blot analysis; assay type: cell-based; conditions: dose 0.0001-10 µM
Target sequence in this assay (P10275 whole entry, looked up): as the sequence (P10275 whole entry, looked up) above
Target sequence in this assay (Q96SW2 whole entry, looked up): as the sequence (Q96SW2 whole entry, looked up) above

LNCaP C4-2 [25] = assay: In vivo antitumor activity in human LNCaP C4-2 cells xenografted in mouse model assessed as tumor growth inhibition at 30 mg/kg, po once daily measured after 28 days relative to control; assay type: functional; conditions: LNCaP C4-2, 672 h, time 28 day, read-out: TGI
[26] = Half life in Han Wistar rat at 1 mg/kg, po and 0.5 mg/kg, iv bolus; assay type: ADME, organism-based; conditions: in vivo
[27] = Permeability of compound in human Caco-2 cells; assay type: ADME, cell-based
[28] = Aqueous solubility of compound at pH 7.4 buffer; assay type: physicochemical
LNCaP C4-2 [29] = assay: In vivo degradation of AR in human LNCaP C4-2 cells xenografted in mouse model assessed as tumor growth inhibition at 10 mg/kg, po once daily measured after 28 days relative to control; assay type: functional, organism-based; conditions: time 28.0 day
[30] = target: von Hippel-Lindau disease tumor suppressor/Androgen receptor (Homo sapiens) (UniProt P10275+P40337); assay: PROTAC activity at AR/VHL in human LNCaP cells assessed as maximal protein degradation measured after 24 hrs incubation by imaging IF assay relative to control; assay type: cell-based
Sequence of von Hippel-Lindau disease tumor suppressor/Androgen receptor (Homo sapiens) (P10275 whole entry, looked up): as the sequence (P10275 whole entry, looked up) above
Sequence of von Hippel-Lindau disease tumor suppressor/Androgen receptor (Homo sapiens) (P40337 whole entry, looked up): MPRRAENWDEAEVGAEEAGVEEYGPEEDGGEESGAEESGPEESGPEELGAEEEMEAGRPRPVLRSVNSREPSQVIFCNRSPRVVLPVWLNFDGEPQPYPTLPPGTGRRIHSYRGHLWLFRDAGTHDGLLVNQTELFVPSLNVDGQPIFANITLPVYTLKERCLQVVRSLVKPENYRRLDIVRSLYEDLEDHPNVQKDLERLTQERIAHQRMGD

| SMILES | microsomal CLint [1] | Emax [2] | DC50 [3] | Emax [6] | half-life [14] | DC50 [16] | bioavailability [18] | Vdss [23] | other results |
| --- | --- | --- | --- | --- | --- | --- | --- | --- | --- |
| N#Cc1ccc(N2CCC(c3ccc(OCCCCN4CCN(c5ccc6c(c5)C(=O)N(C5CCC(=O)NC5=O)C6=O)CC4)cc3)CC2)cc1C(F)(F)F (centres undefined) | 21 µL/min/mg | 100% | 22 nM |  |  |  |  |  |  |
| CNC(=O)c1ccc(N2C(=S)N(c3ccc(C#N)c(C(F)(F)F)c3)C(=O)C2(C)C)cc1F |  |  |  |  |  |  |  |  | Activity (LNCaP C4-2 [4]): Active |
| COc1cc(N2CCN(CC3CCN(c4ccc(C5CCN(c6ccc(C#N)c(C(F)(F)F)c6F)CC5)cc4)CC3)CC2)cc2c1C(=O)N(C1CCC(=O)NC1=O)C2 (centres undefined) |  | 96% | 22 nM | 74% | 9 h | 92 nM | 62% | 1.5 L/kg | Activity [5]: inactive; Vdss [7]: 2.4 L/kg; half-life [8]: 9 h; bioavailability [9]: 29%; Vdss [10]: 1.5 L/kg; half-life [11]: 12.5 h; bioavailability [12]: 18%; Activity (LNCaP C4-2 [13]): >90%; Vdss [15]: 9 L/kg; Activity (LNCaP [17]): inactive; GI50 (LNCaP [19]): 74 nM; Activity [20]: Active; concentration at 240 h [21]: ~20 µM; Activity [22]: inactive; Activity [24]: Active; inhibition in vivo at 30 mg/kg (LNCaP C4-2 [25]): 70%; half-life [26]: 11 h |
| N#Cc1ccc(N2CCC(c3ccc(N4CCC(CN5CCN(c6ccc7c(c6)CN(C6CCC(=O)NC6=O)C7=O)CC5)CC4)cc3)CC2)c(Cl)c1C(F)(F)F (centres undefined) |  | 80% | 48 nM |  |  | 144 nM |  |  |  |
| N#Cc1ccc(N2CCC(c3ccc(N4CCC(CN5CCN(c6ccc7c(c6)C(=O)N(C6CCC(=O)NC6=O)C7=O)CC5)CC4)cc3)CC2)c(F)c1C(F)(F)F (centres undefined) |  | 100% | 170 nM | 100% | 32 h | 1330 nM | 77% | 6.2 L/kg |  |
| N#Cc1ccc(N2CCC(c3ccc(OCCCCN4CCN(c5ccc6c(c5)CN(C5CCC(=O)NC5=O)C6=O)CC4)cc3)CC2)c(F)c1C(F)(F)F (centres undefined) |  | 100% | 9 nM | 78% | 7 h | 107 nM | 30% | 3.4 L/kg |  |
| N#Cc1ccc(N2CCC(c3ccc(N4CCC(CN5CCN(c6ccc7c(c6)CN(C6CCC(=O)NC6=O)C7=O)CC5)CC4)cc3)CC2)cc1C(F)(F)F (centres undefined) | 3 µL/min/mg | 85% | 18 nM |  | 19 h | > 3000 nM | 46% | 4.5 L/kg |  |
| N#Cc1ccc(N2CCC(c3ccc(OCCCN4CCN(c5ccc6c(c5)CN(C5CCC(=O)NC5=O)C6=O)CC4)cc3)CC2)cc1C(F)(F)F (centres undefined) | 5 µL/min/mg | 79% | 16 nM |  |  |  |  |  |  |
| N#Cc1ccc(N2CCC(c3ccc(OCCCCN4CCN(c5ccc6c(c5)CN(C5CCC(=O)NC5=O)C6=O)CC4)cc3)CC2)cc1C(F)(F)F (centres undefined) | 10 µL/min/mg | 97% | 7 nM |  | 5 h | > 3000 nM | 47% | 5.2 L/kg | Vdss [7]: 7.1 L/kg; half-life [8]: 5 h; bioavailability [9]: 20%; Vdss [10]: 5.2 L/kg; half-life [11]: 53.5 h; bioavailability [12]: 8%; Vdss [15]: 6.2 L/kg; Papp [27]: < 0.05 ×10⁻⁶ cm/s; solubility [28]: < 2 µM; half-life [26]: 6.6 h |
| N#Cc1ccc(N2CCC(c3ccc(N4CCC(CN5CCN(c6ccc7c(c6)CN(C6CCC(=O)NC6=O)C7=O)CC5)CC4)cc3)CC2)c(F)c1C(F)(F)F (centres undefined) |  | 95% | 23 nM |  | 19.5 h | 77 nM | 48% | 2 L/kg |  |
| COc1cc(N2CCN(CC3CCN(c4ccc(C5CCN(c6ccc(C#N)c(C(F)(F)F)c6F)CC5)c(F)c4)CC3)CC2)cc2c1C(=O)N(C1CCC(=O)NC1=O)C2 (centres undefined) |  | 100% | 12 nM | 100% | 17 h | 469 nM | 50% | 2.2 L/kg |  |
| N#Cc1ccc(N2CCC(c3ccc(N4CCC(CN5CCN(c6cc7c(cc6F)C(=O)N(C6CCC(=O)NC6=O)C7)CC5)CC4)cc3)CC2)cc1C(F)(F)F (centres undefined) | < 3 µL/min/mg | 92% | 180 nM |  |  |  |  |  |  |
| COc1cc(N2CCN(CC3CCN(c4cc(F)c(C5CCN(c6ccc(C#N)c(C(F)(F)F)c6F)CC5)c(F)c4)CC3)CC2)cc2c1C(=O)N(C1CCC(=O)NC1=O)C2 (centres undefined) |  | 100% | 18 nM | 80% | 41 h | 633 nM | 30% | 3.6 L/kg |  |
| N#Cc1ccc(O[C@H]2CC[C@H](NC(=O)c3ccc(N4CCC(CN5CCN(c6cc7c(cc6F)C(=O)N(C6CCC(=O)NC6=O)C7=O)CC5)CC4)nn3)CC2)cc1Cl (some centres undefined) |  |  |  |  |  |  |  |  | Activity (LNCaP C4-2 [29]): Active |
| N#Cc1ccc(N2CCC(c3ccc(N4CCC(CN5CCN(c6cc7c(cc6F)C(=O)N(C6CCC(=O)NC6=O)C7=O)CC5)CC4)cc3)CC2)c(F)c1C(F)(F)F (centres undefined) |  | 100% | 87 nM | 100% |  | 992 nM |  |  |  |
| COc1cc(N2CCN(CC3CCN(c4ccc(C5CCN(c6ccc(C#N)c(C(F)(F)F)c6)CC5)cc4)CC3)CC2)cc2c1C(=O)N(C1CCC(=O)NC1=O)C2 (centres undefined) | < 3 µL/min/mg | 92% | 26 nM |  | 6.8 h | > 3000 nM | 50% | 2.4 L/kg | Vdss [7]: 13 L/kg; half-life [8]: 6.8 h; bioavailability [9]: 27%; Vdss [10]: 2.4 L/kg; half-life [11]: 21 h; bioavailability [12]: 19%; Vdss [15]: 7.8 L/kg; Papp [27]: < 0.05 ×10⁻⁶ cm/s; solubility [28]: < 2 µM; half-life [26]: 9.1 h |
| Cc1c(N2CCC(c3ccc(N4CCC(CN5CCN(c6ccc7c(c6)CN(C6CCC(=O)NC6=O)C7=O)CC5)CC4)cc3)CC2)ccc(C#N)c1C(F)(F)F (centres undefined) |  | 70% | 152 nM |  |  | > 3000 nM |  |  |  |
| Cc1ncsc1-c1ccc([C@H](C)NC(=O)[C@@H]2C[C@@H](O)CN2C(=O)[C@@H](NC(=O)COCCCCCNc2ccc(C(=O)N[C@H]3C(C)(C)[C@H](Oc4ccc(C#N)c(Cl)c4)C3(C)C)cc2)C(C)(C)C)cc1 |  |  |  |  |  |  |  |  | Emax [30]: 100% |
| N#Cc1ccc(N2CCC(c3ccc(OCCCCCN4CCN(c5ccc6c(c5)CN(C5CCC(=O)NC5=O)C6=O)CC4)cc3)CC2)cc1C(F)(F)F (centres undefined) | 12 µL/min/mg | 94% | 15 nM |  |  |  |  |  |  |
